# Assay results from US8088791B2, “Antibacterial agents” (Biots Scientific Management Pty Ltd, priority 2006, dated 2012).
# Like-named read-outs stand apart in the source and are kept apart here.
# Experiments:
# Assay type in all cases: cell-based
# [1] = tested on: various bacterial species; experiment: Minimum Inhibitory Concentration (MIC) testing, broth microdilution, other bacterial species
# Method: Compounds of this invention were tested for antimicrobial activity by susceptibility testing in liquid media. MICs for compounds against each strain were determined by a broth microdilution method according to the National Committee for Clinical Laboratory Standards (NCCLS) guidelines. (NCCLS. 2000. Methods for dilution antimicrobial susceptibility tests for bacteria that grow aerobically—fifth edition. Approved standard M7-A5. NCCLS, Wayne, Pa.)
# Briefly, test compounds are prepared in 100 μl of 1.6% DMSO solution in multiwell plates. Several bacterial colonies from a freshly streaked plate are transferred to an appropriate rich broth, such as Mueller Hinton. The cell suspension is adjusted to an optical density of 0.09 and further diluted 1:100 with warm 2× broth. This cell suspension is dispensed into the wells containing compound solution so that the final volume is 200 μl. The plates are incubated overnight (16-20 hours) at 37° C. and turbidity is scored by eye and quantified spectrophotometrically. The MIC is defined as the lowest concentration inhibiting visible growth.
# Some of the Examples were also tested for activity against other bacterial species. […] Activities were again scored as ‘A’ if the MIC was ≦8 micrograms/ml, ‘B’ if the MIC was 16 to 64 micrograms/ml and ‘C’ if the MIC was greater than 64 micrograms/ml.
# [2] = tested on: Staphylococcus aureus ATCC29213; experiment: Minimum Inhibitory Concentration (MIC) testing, broth microdilution, Staphylococcus aureus; conditions: Staphylococcus aureus ATCC29213; read-out: Staphylococcus aureus MICs Activity
# In short: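 Broth microdilution per NCCLS M7-A5 in Mueller Hinton broth, with compound in 1.6% DMSO and inoculum at OD 0.09 diluted 1:100. Plates incubated 16–20 h at 37°C. MIC is the lowest concentration with no visible growth; scored A ≤8, B 16–64, C >64 μg/ml.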
# Bacillus subtilis 168CA = experiment: Minimum Inhibitory Concentration (MIC) testing, broth microdilution, Bacillus subtilis; conditions: Bacillus subtilis 168CA; read-out: Bacillus subtilis MICs Activity
# In short: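 MICs were scored A (≦8 μg/ml), B (16–64 μg/ml) or C (>64 μg/ml), read as the lowest concentration preventing visible growth by eye and spectrophotometry. Plates incubated overnight (16–20 h) at 37 °C, inoculum OD 0.09 diluted 1:100 in 2× broth, per NCCLS guidelines.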
# [3] = Staphylococcus epidermidis, ATCC12228, read-out: MIC Activity Staphylococcus epidermidis ATCC 12228
"MIC [1, 3] [mg/L]",MIC [2] [mg/L],MIC (Bacillus subtilis 168CA) [mg/L],"MIC ([1]; Bacillus cereus, ATCC14579, read-out: MIC Activity Bacillus cereus ATCC 14579) [mg/L]","MIC ([1]; Staphylococcus saprophyticus, ATCC15305, read-out: MIC Activity Staphylococcus saprophyticus ATCC 15305) [mg/L]",SMILES,"MIC ([1]; Staphylococcus haemolyticus, ATCC29970, read-out: MIC Activity Staphylococcus haemolyticus ATCC 29970) [mg/L]"
< 8,< 8,< 8,–,–,"CCCCCCCCCOc1cccc(C(N)=O)c1F [Example 175, 2-Fluoro-3-(nonyloxy)benzenecarboxamide]",–
< 8,< 8,< 8,–,–,"NC(=O)c1cccc(OCc2nc(-c3ccc(Cl)cc3)cs2)c1F [Example 271, 3-[4-(4-Chloro-phenyl)-thiazol-2-ylmethoxy]-2-fluoro-benzamide]",–
< 8,< 8,< 8,–,–,"CCCC/C=C\CCCCOc1ccc(F)c(C(N)=O)c1F [Example 87, 2,6-Difluoro-3-[(Z)-5-decenyloxy]benzenecarboxamide]",–
–,< 8,< 8,< 8,< 8,"NC(=O)c1c(F)ccc(OCc2nc3cc(-c4ccccc4)ccc3s2)c1F [Example 114, 2,6-Difluoro-3-(5-phenyl-benzothiazol-2-ylmethoxy)-benzamide]",–
< 8,< 8,< 8,–,–,"NC(=O)c1c(F)ccc(OCc2nc3cc(Cl)cnc3s2)c1F [Example 139, 3-(6-Chloro-thiazolo[5,4-b]pyridin-2-ylmethoxy)-2,6-difluoro-benzamide]",< 8
< 8,< 8,< 8,–,–,"C#CCCCCCCCCCOc1ccc(F)c(C(N)=O)c1F [Example 88, 2,6-Difluoro-3-(10-undecynyloxy)benzenecarboxamide]",–
< 8,< 8,< 8,–,–,"C#CCCCCCCCCCOc1cccc(C(N)=O)c1F [Example 177, 2-Fluoro-3-(10-undecynyloxy)benzenecarboxamide]",–
< 8,< 8,< 8,–,–,"C#CCCCCCCCCCOc1cccc(C(N)=O)c1 [Example 46, 3-(10-Undecynyloxy)benzenecarboxamide]",–
–,16 to 64,16 to 64,–,–,"CCCCOC(=O)COc1cccc(C(N)=O)c1 [Example 41, Butyl 2-[3-(aminocarbonyl)phenoxy]acetate]",–
–,16 to 64,< 8,–,–,"CC(C)(C)c1nc(CCCOc2cccc(C(N)=O)c2)c(C(F)(F)F)o1 [Example 57, 3-{3-[2-(tert-Butyl)-5-(trifluoromethyl)-1,3-oxazol-4-yl]propoxy}benzenecarboxamide]",–
–,< 8,< 8,–,–,"NC(=O)c1c(F)ccc(OCc2nc(-c3ccc(Cl)cc3)co2)c1F [Example 309, 3-[4-(4-Chloro-phenyl)-oxazol-2-ylmethoxy]-2,6-difluoro-benzamide]",–
–,< 8,< 8,–,–,"Cc1ccc(-c2nc(COc3ccc(F)c(C(N)=O)c3F)co2)cc1 [Example 295, 2,6-Difluoro-3-(2-p-tolyl-oxazol-4-ylmethoxy)-benzamide]",–
–,16 to 64,16 to 64,–,–,"Cc1nc(COc2ccc(F)c(C(N)=O)c2F)cs1 [Example 190, 2,6-Difluoro-3-[(2-methyl-1,3-thiazol-4-yl)methoxy]benzenecarboxamide]",–
–,< 8,< 8,–,–,"NC(=O)c1c(Cl)ccc(OCc2nc3cc(Cl)ccc3s2)c1F [Example 220, 6-Chloro-3-[(5-chloro-1,3-benzothiazol-2-yl)methoxy]-2-fluorobenzenecarboxamide]",–
–,16 to 64,< 8,–,–,"NC(=O)c1c(F)ccc(OCc2noc(C=Cc3ccccc3)n2)c1F [Example 149, 2,6-Difluoro-3-(5-styryl-[1,2,4]oxadiazol-3-ylmethoxy)-benzamide]",–
–,16 to 64,16 to 64,–,–,"C=CCCCCOc1cccc(C(N)=O)c1 [Example 15, 3-(5-Hexenyloxy)benzenecarboxamide]",–
–,< 8,< 8,–,–,"NC(=O)c1c(F)ccc(OCc2cc(-c3ccccc3)on2)c1F [Example 163, 2,6-Difluoro-3-(5-phenyl-isoxazol-3-ylmethoxy)-benzamide]",–

"MIC [1, 3] [mg/L]",MIC [2] [mg/L],MIC (Bacillus subtilis 168CA) [mg/L],"MIC ([1]; Bacillus cereus, ATCC14579, read-out: MIC Activity Bacillus cereus ATCC 14579) [mg/L]","MIC ([1]; Staphylococcus saprophyticus, ATCC15305, read-out: MIC Activity Staphylococcus saprophyticus ATCC 15305) [mg/L]",SMILES,"MIC ([1]; Staphylococcus haemolyticus, ATCC29970, read-out: MIC Activity Staphylococcus haemolyticus ATCC 29970) [mg/L]"
–,< 8,< 8,–,–,"NC(=O)c1c(F)ccc(OCc2nc3cc(-c4ccccc4N)ccc3s2)c1F [Example 141, 3-[5-(2-Amino-phenyl)-benzothiazol-2-ylmethoxy]-2,6-difluoro-benzamide]",–
–,16 to 64,< 8,–,–,"Cc1ccc(OCc2noc(COc3ccc(F)c(C(N)=O)c3F)n2)cc1 [Example 263, 2,6-Difluoro-3-(3-[(4-methylphenoxy)methyl]-1,2,4-oxadiazol-5-ylmethoxy)benzenecarboxamide]",–
–,< 8,< 8,–,–,"CCCc1sc(COc2ccc(F)c(C(N)=O)c2F)nc1-c1ccc(OC)cc1 [Example 118, 2,6-Difluoro-3-[4-(4-methoxy-phenyl)-5-propyl-thiazol-2-ylmethoxy]-benzamide]",–
–,16 to 64,16 to 64,–,–,"NC(=O)c1c(F)ccc(OCc2nccs2)c1F [Example 191, 2,6-Difluoro-3-(1,3-thiazol-2-ylmethoxy)benzenecarboxamide]",–
–,> 64,> 64,–,–,"Cc1cc(COc2ccc(F)c(C(N)=O)c2F)no1 [Example 182, 2,6-Difluoro-3-[(5-methyl-3-isoxazolyl)methoxy]benzenecarboxamide]",–
–,< 8,< 8,–,–,"Cc1ccc2sc(COc3ccc(F)c(C(N)=O)c3F)cc2c1 [Example 205, 2,6-Difluoro-3-[(5-methyl-1-benzothiophen-2-yl)methoxy]benzenecarboxamide]",–
–,< 8,< 8,–,–,"NC(=O)c1c(F)ccc(OCc2nc(-c3ccc(C(F)(F)F)cc3)cs2)c1F [Example 319, 2,6-Difluoro-3-[4-(4-trifluoromethyl-phenyl)-thiazol-2-ylmethoxy]-benzamide]",–
–,< 8,< 8,–,–,"NC(=O)c1c(F)ccc(OCc2nc3cc(Cl)ccc3s2)c1Cl [Example 221, 2-Chloro-3-[(5-chloro-1,3-benzothiazol-2-yl)methoxy]-6-fluorobenzenecarboxamide]",–
–,16 to 64,16 to 64,–,–,"NC(=O)c1c(F)ccc(OCc2ccco2)c1F [Example 183, 2,6-Difluoro-3-(2-furylmethoxy)benzenecarboxamide]",–
–,16 to 64,< 8,–,–,"CCCCCC/C=C\COc1cccc(C(N)=O)c1 [Example 47, 3-[(Z)-2-Nonenyloxy]benzenecarboxamide]",–
–,> 64,< 8,–,–,"NC(=O)c1c(F)ccc(OCc2cc3ccccc3s2)c1F [Example 206, 3-(1-Benzothiophen-2-ylmethoxy)-2,6-difluorobenzenecarboxamide]",–
–,< 8,< 8,–,–,NC(=O)c1c(F)ccc(OCc2nc3cc(C4CCCC4)ccc3s2)c1F [Example 317],–
–,< 8,< 8,–,–,"CC/C=C\CCCCCOc1cccc(C(N)=O)c1 [Example 61, 3-[(Z)-6-Nonenyloxy]benzenecarboxamide]",–
–,< 8,< 8,–,–,"N#Cc1ccc(-c2nc(COc3ccc(F)c(C(N)=O)c3F)sc2Br)cc1 [Example 291, 3-[5-Bromo-4-(4-cyano-phenyl)-thiazol-2-ylmethoxy]-2,6-difluoro-benzamide]",–
–,< 8,< 8,–,–,"CCCCCCCOc1cccc(C(N)=O)c1 [Example 24, 3-(Heptyloxy)benzenecarboxamide]",–
–,16 to 64,16 to 64,–,–,"CCCCCCOc1cccc(C(N)=O)c1 [Example 8, 3-(Hexyloxy)benzenecarboxamide]",–
